Experiment [1] has as its target T1, full length human RORγt (Homo sapiens, UniProt P51449).
T1 construct: full length human RORγt together in COS-7 cells; expressed in transfected cells; host or cells: COS-7
T1 sequence (P51449 1-497 isoform P51449-2): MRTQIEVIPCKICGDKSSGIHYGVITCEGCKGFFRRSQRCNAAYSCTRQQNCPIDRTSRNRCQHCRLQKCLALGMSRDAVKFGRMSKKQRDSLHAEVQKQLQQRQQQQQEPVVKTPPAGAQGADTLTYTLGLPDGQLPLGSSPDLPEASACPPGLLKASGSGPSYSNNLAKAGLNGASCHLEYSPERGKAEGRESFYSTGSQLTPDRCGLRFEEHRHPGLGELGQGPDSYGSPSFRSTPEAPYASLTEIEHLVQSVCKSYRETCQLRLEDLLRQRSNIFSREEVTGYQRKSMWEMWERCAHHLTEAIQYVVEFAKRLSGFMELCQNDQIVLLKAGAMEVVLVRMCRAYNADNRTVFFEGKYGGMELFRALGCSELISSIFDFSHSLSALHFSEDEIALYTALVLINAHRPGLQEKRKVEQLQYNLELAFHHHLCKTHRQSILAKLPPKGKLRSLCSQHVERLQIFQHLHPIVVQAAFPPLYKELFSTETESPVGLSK
The experiment in a line: 5×RORE based luciferase assay. The following applies: COS-7 cells transfected with 5×RORE-Luc and hRORγt, 18-20 h treatment. It counts as cell-based. As for the experimental part: Human RORγt (hRORγt) inhibitors were screened in RORE (RORγt Response Element) based Luciferase assay by transient transfection of 5×RORE (5 tandem repeats of RORγt Response Element) and full length human RORγt together in COS-7 cells. COS-7 cells were maintained as monolayer in complete DMEM (High Glucose) medium in presence of 2 mM Glutamin and 1× Sodium Pyruvate. Day before transfection, 15000 cells were seeded in 96 well cell culture plate in 100 μl antibiotic free medium and incubated at 37° C. in 5% CO2 containing humidified chamber O/N. Prior to transfection, cells were fed with fresh complete growth medium and incubated until the addition of transfection complex. Transfection complex for the required numbers of wells were prepared from pGL2-promoter-5×RORE-Luc plasmid, pcDNA3.1 (+)-hRORγt expression plasmid, pβ-GAL plasmid (transfection control), and Lipofectamine 3000 (Invitrogen). 50 μl of transfection complex were added in 100 μl of complete medium to respective wells, mixed gently and plate was incubated for 5-6 h at 37° C. in 5% CO2 containing humidified chamber. After 5 h of transfection, content of the wells were aspirated and cells were treated with increasing concentration of RORγt inverse agonist in medium devoid of serum with a final DMSO concentration of 0.2% for 18-20 h at 37° C. in 5% CO2 containing humidified chamber. Next day, cells were lysed and the lysates were assayed for luciferase and β-GAL activity using Promega's luciferase assay system and an in-house made β-GAL assay buffer respectively. Luciferase signals were normalized with β-GAL and % activity was determined with respect to that of 10 nM control ligand.
IC50 of selected compounds were then determined by nonlinear regression analysis of % activity, plotted against compound concentration (Table 4).

Experiment [2] relates to secreted IL-17 in peripheral blood mononuclear cells (PBMCs). Description: Human IL-17 inhibition assay. It counts as cell-based. The following applies: PBMC, anti-CD3/anti-CD28, 72 h, read-out: IL17 IC50. The method, then: Peripheral blood mononuclear cells (PBMCs) were isolated from healthy volunteers and subjected to T cell polarization assay. Two million PBMCs were placed on anti-CD3 (Biolegend, US) coated 96-well plates and 1 μg/mL of anti-CD28 (Biolegend, US) was added along with RORγt inhibitors or the vehicle control and incubated at 37° C. and 5% CO2 for 72 h. At the end of incubation time, the supernatant was collected and analyzed for secreted IL-17 using sandwich enzyme immunoassay (Mabtech AB, Sweden). The results were analyzed using Graphpad Prism and the half-maximal inhibitory concentrations (IC50) of the test compounds were derived (Table 4).

Results on 18 compounds are retold here after patent publication US20190152962A1, “CYCLOPROPYL DERIVATIVES AS ROR-GAMMA MODULATORS” (CADILA HEALTHCARE LIMITED, priority 2016, published 2019).

By pIC50 is commonly meant −log10 of the IC50, conventionally taken in molar units.

pIC50: −log10 of the molar value.

With `CCS(=O)(=O)c1ccc(CC(=O)Nc2cc(Cl)c(C3(c4noc(-c5ccc(Cl)cc5Cl)n4)CC3)c(Cl)c2)nc1` [Example 49, N-(3,5-dichloro-4-(1-(5-(2,4-dichlorophenyl)-1,2,4-oxadiazol-3-yl)cyclopropyl)phenyl)-2-(5-(ethylsulfonyl)pyridin-2-yl)acetamide], the negative logarithm of the IC50 (pIC50) in experiment [1] is 8.33; in experiment [2], 7.77.

As for `CCS(=O)(=O)c1ccc(CC(=O)Nc2cc(Cl)c(C3(c4noc(-c5ccc(Cl)cc5)n4)CC3)c(Cl)c2)nc1` [Example 50, N-(3,5-dichloro-4-(1-(5-(4-chlorophenyl)-1,2,4-oxadiazol-3-yl)cyclopropyl)phenyl)-2-(5-(ethylsulfonyl)pyridin-2-yl)acetamide], the negative logarithm of the IC50 (pIC50) is 7.84 in experiment [1] and 7.52 in experiment [2].

On to `CCS(=O)(=O)c1ccc(CC(=O)Nc2cc(Cl)c(C3(c4noc(-c5cccc(Cl)c5)n4)CC3)c(Cl)c2)nc1` [Example 51, N-(3,5-dichloro-4-(1-(5-(3-chlorophenyl)-1,2,4-oxadiazol-3-yl)cyclopropyl)phenyl)-2-(5-(ethylsulfonyl)pyridin-2-yl)acetamide], for which the negative logarithm of the IC50 (pIC50) was 7.92 in experiment [1] and 7.80 in experiment [2].

For `CCS(=O)(=O)c1ccc(CC(=O)Nc2cc(Cl)c(C3(c4noc(-c5ccc(C#N)cc5)n4)CC3)c(Cl)c2)nc1` [Example 53, N-(3,5-dichloro-4-(1-(5-(4-cyanophenyl)-1,2,4-oxadiazol-3-yl)cyclopropyl)phenyl)-2-(5-(ethylsulfonyl)pyridin-2-yl)acetamide], the negative logarithm of the IC50 (pIC50) in experiment [1] was 8.72; in experiment [2] it was 7.32.

Consider `CCS(=O)(=O)c1ccc(CC(=O)Nc2cc(Cl)c(C3(c4nc5ccc(F)cc5o4)CC3)c(Cl)c2)nc1` [Example 58, N-(3,5-dichloro-4-(1-(6-fluorobenzo[d]oxazol-2-yl)cyclopropyl)phenyl)-2-(5-(ethylsulfonyl)pyridin-2-yl)acetamide], for which the negative logarithm of the IC50 (pIC50) is 8.47 in experiment [1] and 7.63 in experiment [2].

With `CCS(=N)(=O)c1ccc(CC(=O)Nc2cc(Cl)c(C3(c4noc(-c5ccc(F)cc5)n4)CC3)c(Cl)c2)cc1` (stereo not drawn) [Example 61, N-(3,5-dichloro-4-(1-(5-(4-fluorophenyl)-1,2,4-oxadiazol-3-yl)cyclopropyl)phenyl)-2-(4-(ethylsulfonimidoyl)phenyl)acetamide], the results for the pIC50 in experiment [1] and in experiment [2] were 8.04 and 7.46, respectively.

For `O=C(Cc1ccc(S(=O)(=O)NC2CC2)cc1)Nc1cc(Cl)c(C2(c3noc(-c4ccc(F)cc4)n3)CC2)c(Cl)c1` [Example 63, 2-(4-(N-cyclopropylsulfamoyl)phenyl)-N-(3,5-dichloro-4-(1-(5-(4-fluorophenyl)-1,2,4-oxadiazol-3-yl)cyclopropyl)phenyl)acetamide], the negative-log IC50 (pIC50) in experiment [1] was 7.96; in experiment [2] it was 7.74.

Regarding `O=C(Cc1ccc(S(=O)(=O)NC2CC2)cc1)Nc1cc(Cl)c(C2(c3noc(-c4ccc(C(F)(F)F)cc4)n3)CC2)c(Cl)c1` [Example 64, 2-(4-(N-cyclopropylsulfamoyl)phenyl)-N-(3,5-dichloro-4-(1-(5-(4-(trifluoromethyl)phenyl)-1,2,4-oxadiazol-3-yl)cyclopropyl)phenyl)acetamide], the pIC50 was 7.80 in experiment [1] and 7.20 in experiment [2].

Consider `O=C(Cc1ccc(S(=O)(=O)NC2CC2)cc1)Nc1cc(Cl)c(C2(c3nc4ccc(F)cc4o3)CC2)c(Cl)c1` [Example 65, 2-(4-(N-cyclopropylsulfamoyl)phenyl)-N-(3,5-dichloro-4-(1-(6-fluorobenzo[d]oxazol-2-yl)cyclopropyl)phenyl)acetamide], for which the negative logarithm of the IC50 (pIC50) in experiment [1] was 8.62; in experiment [2], 8.22.

`CCS(=O)(=O)c1ccc(CC(=O)Nc2cc(Cl)c(C3(c4noc(-c5ccc(F)c(F)c5)n4)CC3)c(Cl)c2)cn1` [Example 68, N-(3,5-dichloro-4-(1-(5-(3,4-difluorophenyl)-1,2,4-oxadiazol-3-yl)cyclopropyl)phenyl)-2-(6-(ethylsulfonyl)pyridin-3-yl)acetamide]: the pIC50 in experiment [1] was 8.02; in experiment [2] it was 7.37.

As to `CCS(=O)(=O)c1ccc(CC(=O)Nc2cc(Cl)c(C3(c4noc(-c5ccc(F)cc5F)n4)CC3)c(Cl)c2)cn1` [Example 69, N-(3,5-dichloro-4-(1-(5-(2,4-difluorophenyl)-1,2,4-oxadiazol-3-yl)cyclopropyl)phenyl)-2-(6-(ethylsulfonyl)pyridin-3-yl)acetamide], the pIC50 in experiment [1] was 8.19; in experiment [2] it was 7.65.

On to `CCS(=O)(=O)c1ccc(CC(=O)Nc2cc(Cl)c(C3(c4noc(-c5ccc(F)c(Cl)c5)n4)CC3)c(Cl)c2)cn1` [Example 70, N-(3,5-dichloro-4-(1-(5-(3-chloro-4-fluorophenyl)-1,2,4-oxadiazol-3-yl)cyclopropyl)phenyl)-2-(6-(ethylsulfonyl)pyridin-3-yl)acetamide], for which the negative logarithm of the IC50 (pIC50) in experiment [1] was 7.77; in experiment [2] it was 7.66.

`CCS(=O)(=O)c1ccc(CC(=O)Nc2cc(Cl)c(C3(c4noc(-c5ccc(Cl)c(Cl)c5)n4)CC3)c(Cl)c2)cn1` [Example 71, N-(3,5-dichloro-4-(1-(5-(3,4-dichlorophenyl)-1,2,4-oxadiazol-3-yl)cyclopropyl)phenyl)-2-(6-(ethylsulfonyl)pyridin-3-yl)acetamide]: the negative-log IC50 (pIC50) in experiment [1] was 7.80; in experiment [2] it was 7.49.

On to `CCS(=O)(=O)c1ccc(CC(=O)Nc2cc(Cl)c(C3(c4noc(-c5ccc(Cl)cc5)n4)CC3)c(Cl)c2)cn1` [Example 72, N-(3,5-dichloro-4-(1-(5-(4-chlorophenyl)-1,2,4-oxadiazol-3-yl)cyclopropyl)phenyl)-2-(6-(ethylsulfonyl)pyridin-3-yl)acetamide], for which the pIC50 in experiment [1] is 7.70; in experiment [2], 7.68.

As for `CCS(=O)(=O)c1ccc(CC(=O)Nc2cc(Cl)c(C3(c4noc(-c5ccc(C#N)cc5)n4)CC3)c(Cl)c2)cn1` [Example 73, N-(3,5-dichloro-4-(1-(5-(4-cyanophenyl)-1,2,4-oxadiazol-3-yl)cyclopropyl)phenyl)-2-(6-(ethylsulfonyl)pyridin-3-yl)acetamide], the negative logarithm of the IC50 (pIC50) in experiment [1] was 7.75; in experiment [2], 7.63.

Consider `CCS(=O)(=O)c1ccc(CC(=O)Nc2cc(Cl)c(C3(c4nc5ccc(F)cc5o4)CC3)c(Cl)c2)cn1` [Example 74, N-(3,5-dichloro-4-(1-(6-fluorobenzo[d]oxazol-2-yl)cyclopropyl)phenyl)-2-(6-(ethylsulfonyl)pyridin-3-yl)acetamide], for which the negative-log IC50 (pIC50) in experiment [1] and in experiment [2] was 7.62 throughout.

As for `CCS(=O)(=O)c1cnc(CC(=O)Nc2cc(Cl)c(C3(c4nc5ccc(F)cc5o4)CC3)c(Cl)c2)cn1` [Example 78, N-(3,5-dichloro-4-(1-(6-fluorobenzo[d]oxazol-2-yl)cyclopropyl)phenyl)-2-(5-(ethylsulfonyl)pyrazin-2-yl)acetamide], the negative logarithm of the IC50 (pIC50) in experiment [1] is 8.10; in experiment [2], 7.33.

In the case of `CCS(=O)(=O)c1ccc(CC(=O)Nc2cc(Cl)c(C3(c4nnc(-c5ccc(F)cc5)o4)CC3)c(Cl)c2)cc1` [Example 79, N-(3,5-dichloro-4-(1-(5-(4-fluorophenyl)-1,3,4-oxadiazol-2-yl)cyclopropyl)phenyl)-2-(4-(ethylsulfonyl)phenyl)acetamide], the results for the negative-log IC50 (pIC50) in experiment [1] and in experiment [2] were 7.91 and 7.41, respectively.
